Measurements from patent US10463659B2, “Multi-arm polymer prodrugs” (priority 2003, dated 2019).

What was measured:
HT29 tumor fragments = assay: HT29 colorectal tumor xenograft, monotherapy study (Example 21); type: in vivo; details: for Tumor growth delay: HT29, all three doses tested (40, 60, or 90 mg/kg); for tolerability: all doses
Description: HT29 tumor fragments were implanted into female, athymic nude mice in the monotherapy study. […]. Animals were weighed and tumor volumes measured twice weekly after the first drug injection in both studies.

[1] = PK/PD study in HT29 colon tumor model (plasma and tumor AUC, t½); details: 40 mg/kg IV q4d x3, Day 1 AUC
[2] = PK/PD study in NCl-H460 lung tumor model (plasma and tumor AUC, t½); details: Day 1 AUC
[3] = tested on: Human HT29 colon tumor xenografts; assay: HT29 colon tumor xenograft, anti-tumor activity (Examples 2 and 6); details: HT29 colon tumors, 3 doses; for delay in tumor growth (anti-tumor activity) compared to the control: 60 mg/kg IV every 4 days
Experimental: Human HT29 colon tumor xenografts were subcutaneously implanted in athymic nude mice. After about two weeks of adequate tumor growth (100 to 250 mg), these animals were divided into different groups of ten mice each. […] Doses were administered intravenously, with one dose administered every 4 days for a total of 3 administered doses. The mice were observed daily and the tumors were measured with calipers twice a week.
Athymic nude mice were implanted subcutaneously with human cancer cell lines (lung cancer cell line NCl-H460, and colon cancer cell line HT-29) and the tumors allowed to grow to approximately 150 mg in size. The animals were divided into groups of ten mice each.
Tumor volume measurements were taken over a period of 60-80 days; tumor volumes were converted to tumor weight. Body weights were also measured over the same period to provide an indication of weight loss.

MCF-7 breast tumor cells = assay: MCF-7 breast tumor xenograft, 4-arm-PEG-gly-irino-20K vs irinotecan; type: in vivo, Female athymic (Nu:Nu) mice; details: for Days to 4 Times Tumor Size: median; for Tumor Regression Complete / Tumor Regression Partial: n=10
Experimental: Female athymic (Nu:Nu) mice were injected subcutaneously with MCF-7 breast tumor cells and the tumors were allowed to reach a median volume of 75 mm^3. […] The control group received normal saline. The animals were weighed and tumors were measured twice weekly after administration of the first drug injection.

[4] = Diarrhea episodes in dogs (FIG. 23); type: in vivo
Experimental: (§1) Additional illustrative in-vivo studies were carried out as described previously herein or in accordance with methods well-known to one having ordinary skill in the art.

[5] = rodents
[6] = Exposure to SN-38 in HT-29 colorectal tumors in mice (FIG. 20); type: in vivo
Experimental: as §1

[7] = Plasma levels of SN-38 in dogs (FIG. 24); type: in vivo
Experimental: as §1

neutrophils = assay: Neutropenia in dogs, 4-arm-PEG-GLY-IRINO-20K vs irinotecan (FIG. 21); type: in vivo
Experimental: as §1

[8] = Toxicity: maximum tolerated dose and side-effects in rat and dog (FIG. 22); type: in vivo
Experimental: as §1

DU-145 prostate tumors = assay: DU-145 prostate tumor xenograft, PEG-docetaxel vs docetaxel; type: in vivo, mice; details: DU-145, two doses (q7 d×2)
[9] = as above; type: in vivo, mice; details: NCr nu/nu, mouse, in vivo, intravenous; DU-145 study, q7 d×2; read-out: tolerated dose (maximum tolerated dose)
in vivo = details: NCr nu/nu, mouse
Description: Human NCl-H460 lung tumors (30 to 40 fragments of each) were implanted subcutaneously in the mice (Charles Rivers Labs: NCr nu/nu) near the right axillary area.
The animals were randomized into groups in a manner such that the median tumor weights on the first day of treatment were as close to each other as possible.
The mice received 1 or 2 intravenous doses of test compound or vehicle (saline).
The animals were weighed and the tumors measured twice weekly after administration of the first injection. The tumor volume was measured by caliper measurements (mm) and using the formula of an ellipsoid sphere: L×W^2/2=mm^3, where L and W refer to the larger and smaller perpendicular dimensions collected at each measurement. This formula was also used to calculate tumor weight assuming unit density (1 mm^3=1 mg).
Any animal found moribund or any animal whose tumor reached 4000 mg, ulcerated or was sloughed off was euthanized prior to study termination.

[10] = single dose, following PEG-Irinotecan administration

Compound: CCc1c2c(nc3ccc(OC(=O)N4CCC(N5CCCCC5)CC4)cc13)-c1cc3c(c(=O)n1C2)COC(=O)[C@]3(O)CC [irinotecan, 7-ethyl-10[4-(1-piperidino)-1-piperidino] carbonyloxy CPT, reference compound]
- Tumor growth delay (HT29 tumor fragments; q4 d×3): 0.3 to 1.6 days
- tolerability (HT29 tumor fragments): well tolerated
- Exposure (AUC) of Irinotecan, Plasma [1]: 0.3 µg·days/mL
- Exposure (AUC) of SN38, Plasma [1]: 0.01 µg·days/mL
- Exposure (AUC) of Irinotecan, Plasma [2]: 0.5 µg·days/mL
- Exposure (AUC) of SN38, Plasma [2]: 0.2 µg·days/mL
- delay in tumor growth (anti-tumor activity) compared to the control [3]: significantly improved when compared to the control
- Days to 4 Times Tumor Size (MCF-7 breast tumor cells; 20 mg/kg per dose x3): 40.2 days
- Tumor Regression Complete (MCF-7 breast tumor cells; 20 mg/kg per dose x3): 0
- Tumor Regression Partial (MCF-7 breast tumor cells; 20 mg/kg per dose x3): 0
- Median Duration (MCF-7 breast tumor cells; 40 mg/kg per dose x3): 42.0 days
- Days to 4 Times Tumor Size (MCF-7 breast tumor cells; 40 mg/kg per dose x3): 42.8 days
- Tumor Regression Complete (MCF-7 breast tumor cells; 40 mg/kg per dose x3): 0
- Tumor Regression Partial (MCF-7 breast tumor cells; 40 mg/kg per dose x3): 1

Compound: Pentaerythritolyl-4-Arm-(PEG-1-Methylene-2Oxo-Vinylamino Acetate Linked-Irinotecan)-20K [4-arm-PEG-GLY-IRINO-20K]
- diarrhea episodes compared to irinotecan [4]: fewer diarrhea episodes
- complete tumor regression (animals) (HT29 tumor fragments; HT29, 90 mg/kg dose, q4 d×3): 3/10
- partial tumor regression (animals) (HT29 tumor fragments; HT29, 90 mg/kg dose, q4 d×3): 1/10
- Tumor growth delay (HT29 tumor fragments; q4 d×3): 20.9 to 60.2 days
- tumor growth inhibition compared to irinotecan (HT29 tumor fragments; HT29 human colorectal tumor xenograft model): more effectively than irinotecan
- tolerability (HT29 tumor fragments): well tolerated
- SN38 levels and AUCs after PEG-Irinotecan [5]: very high AUCs
- Exposure (AUC) of Irinotecan, Plasma [1]: 1.5 µg·days/mL
- Exposure (AUC) of PEG-Irinotecan, Plasma [1]: 2143 µg·days/mL
- Exposure (AUC) of PEG-SN38, Plasma [1]: 784 µg·days/mL
- Exposure (AUC) of SN38, Plasma [1]: 5.8 µg·days/mL
- Exposure (AUC) of Irinotecan, Plasma [2]: 2.0 µg·days/mL
- Exposure (AUC) of PEG-Irinotecan, Plasma [2]: 1213 µg·days/mL
- Exposure (AUC) of PEG-SN38, Plasma [2]: 229 µg·days/mL
- Exposure (AUC) of SN38, Plasma [2]: 2.6 µg·days/mL
- exposure to SN-38 in colorectal tumors in comparison to irinotecan [6]: two to three times logarithmic increase
- plasma levels of SN-38 compared to unmodified irinotecan [7]: elevated and sustained over a longer period of time
- neutropenia compared to irinotecan at an equivalent dose (neutrophils): reduced neutropenia
- t½ of PEG-Irinotecan, species comparison (in vivo): Dog > rat =
- exposure to irinotecan and SN38 vs dosing with irinotecan per se (single dose, all species examined): sustained and greater exposure
- AUC of PEG-Irinotecan, species comparison [10]: mouse < rat < dog
- AUC of SN38, species comparison [10]: mouse >> rat >> dog
- Cmax of PEG-Irinotecan, species comparison [10]: mouse < rat < dog
- Cmax of SN38, species comparison [10]: Mouse >> rat >> dog
- delay in tumor growth compared to unconjugated irinotecan ([3]; 60 mg/kg (irinotecan content) IV every 4 days): significantly better
- delay in tumor growth (anti-tumor activity) compared to the control [3]: significantly improved when compared to the control
- maximum tolerated dose (MTD) compared to irinotecan ([8]; FIG. 22, rat and dog): significantly higher
- occurrence and/or extent and/or severity of side-effects such as neutropenia and diarrhea vs irinotecan ([8]; equivalent doses (FIG. 23)): reduced
- T − C (MCF-7 breast tumor cells; 20 mg/kg per dose x3): >52 days
- Days to 4 Times Tumor Size (MCF-7 breast tumor cells; 20 mg/kg per dose x3): >72 days
- Tumor Regression Complete (MCF-7 breast tumor cells; 20 mg/kg per dose x3): 0
- Tumor Regression Partial (MCF-7 breast tumor cells; 20 mg/kg per dose x3): 0
- Median Duration (MCF-7 breast tumor cells; 40 mg/kg per dose x3): 22.0 days
- T − C (MCF-7 breast tumor cells; 40 mg/kg per dose x3): >52 days
- Days to 4 Times Tumor Size (MCF-7 breast tumor cells; 40 mg/kg per dose x3): >72 days
- Tumor Regression Complete (MCF-7 breast tumor cells; 40 mg/kg per dose x3): 0
- Tumor Regression Partial (MCF-7 breast tumor cells; 40 mg/kg per dose x3): 1
- T − C (MCF-7 breast tumor cells; 60 mg/kg per dose x3): >52 days
- Days to 4 Times Tumor Size (MCF-7 breast tumor cells; 60 mg/kg per dose x3): >72 days
- Tumor Regression Complete (MCF-7 breast tumor cells; 60 mg/kg per dose x3): 0
- Tumor Regression Partial (MCF-7 breast tumor cells; 60 mg/kg per dose x3): 0
- T − C (MCF-7 breast tumor cells; 90 mg/kg per dose x3): >52 days
- Tumor Regression Partial (MCF-7 breast tumor cells; 90 mg/kg per dose x3, <50% of size observed on Day 1): 1
- Median Duration (MCF-7 breast tumor cells; 90 mg/kg per dose x3, interval regressed tumor below 50% pretreatment size): 49.0 days
- Days to 4 Times Tumor Size (MCF-7 breast tumor cells; 90 mg/kg per dose x3): >72 days
- Tumor Regression Complete (MCF-7 breast tumor cells; 90 mg/kg per dose x3, unpalpable): 0
- T-C value compared with irinotecan treatment groups (MCF-7 breast tumor cells; all 4 dose levels, p<0.001): significantly higher
- tumor regrowth (MCF-7 breast tumor cells; any dose level (FIG. 15A)): No tumor regrowth occurred

Compound: CC(=O)O[C@@]12CO[C@@H]1C[C@H](O)[C@@]1(C)C(=O)[C@H](O)C3=C(C)[C@@H](OC(=O)[C@H](O)[C@@H](NC(=O)OC(C)(C)C)c4ccccc4)C[C@@](O)([C@@H](OC(=O)c4ccccc4)[C@H]21)C3(C)C [docetaxel]
- time after which tumors did recover and grow (DU-145 prostate tumors): 30 to 50 days
- anti-tumor effect on tumor growth (DU-145 prostate tumors; all 3 doses tested, 78 day observation period): good activity
- MTD at 78 day [9]: ≤ 30 mg/kg
- MTD (in vivo): ≤ 30 mg/kg
